# Reference: publication PMC7765321, “Novel Isoniazid-Carborane Hybrids Active In Vitro against Mycobacterium tuberculosis” (Pharmaceuticals, 2020)
# “And” between values parts separate entries of the source, which are not always exact repeats. Identical values can stand only once.
# Tested on: Mtb ΔkatG mutant strain
# Format: cell-based, Mycobacterium tuberculosis
Compound,katG MIC50 [µM],katG MIC99
"N′-((1,2-dicarba-closo-dodecaboran-1-yl)ethylidene)isonicotinohydrazide [Compound 20]",160,240 µM
"N′-((1,2-dicarba-closo-dodecaboran-1-yl)ethyl)isonicotinohydrazide [Compound 23]",97.60,240 µM
"N′-((1,7-dicarba-closo-dodecaboran-1-yl)ethylidene)isonicotinohydrazide [Compound 21]",160,240 µM
"N′-((1,7-dicarba-closo-dodecaboran-1-yl)ethyl)isonicotinohydrazide [Compound 24]",81.30,160 µM
"N′-((1,7-dicarba-closo-dodecaboran-1-yl)methylidene)isonicotinohydrazide [Compound 14]",260,340 µM
"N′-((1,12-dicarba-closo-dodecaboran-1-yl)propanoyl)isonicotinohydrazide [Compound 10]",150,300 µM
"N′-((1,12-dicarba-closo-dodecaboran-1-yl)methylidene)isonicotinohydrazide [Compound 15]",510,680 µM
"NNC(=O)c1ccncc1 [4 (INH), pyridine-4-carbohydrazide, reference compound]",1100,1500 µM
"N′-((1,2-dicarba-closo-dodecaboran-1-yl)propanoyl)isonicotinohydrazide [Compound 8]",150,300 µM
"N′-((1,7-dicarba-closo-dodecaboran-1-yl)propanoyl)isonicotinohydrazide [Compound 9]",150,300 µM
"N′-((7,8-dicarba-nido-undecaboranyl)methylidene)isonicotinohydrazide [Compound 16]",500,>660 µM
"N′-((1,12-dicarba-closo-dodecaboran-1-yl)ethylidene)isonicotinohydrazide [Compound 22]",160,330 µM
"N′-((1,12-dicarba-closo-dodecaboran-1-yl)ethyl)isonicotinohydrazide [Compound 25]",3.25,24.4 µM and 24.40 µM
